Data set [1] has as its target CYP3A4 (Homo sapiens, UniProt P08684). Kind of data set: CYP3A4 fluorescent MBI test. Type of data set: in vitro ADME. On the set-up: host or cells: E. coli. As to conditions: E. coli-expressing CYP3A4, substrate 7-BFC, pre-reaction 0 or 30 minutes. The procedure:
The CYP3A4 fluorescent MBI test is a test to examine enhancement of CYP3A4 inhibition by metabolic reaction of the compound. Here, E. coli-expressing CYP3A4 was used as an enzyme, and a reaction wherein 7-benzyloxy trifluoromethylcumarin (BFC) was debenzylated by the CYP3A4 enzyme into a fluorescent metabolite 7-hydroxytrifluoromethylcumarin (HFC) was employed as an indicator reaction.
The reaction conditions are as follows.
Substrate: […] 7-BFC; Pre-reaction time: 0 or 30 minutes; Reaction time: 15 minutes; Reaction temperature: 25° C. […]
The enzyme and a test compound solution are added to a K-Pi buffer (pH 7.4) in the aforementioned amounts for the pre-reaction so that a pre-reaction solution is prepared, and this solution is put into a 96-well plate. […] With respect to each of the plates on which the indicator reaction is performed, the fluorescence value of the metabolite 7-HFC is measured with a fluorescence plate reader (Ex=420 nm, Em=535 nm).
Control (100%) is prepared by adding only DMSO, a solvent to dissolve the test compound, to the reaction system. The remaining activity (%) at each concentration after adding the test compound solution is calculated, and the IC50 value is calculated from the concentration and inhibition percentage by inverse estimation with the logistic model. […]

Data set [2] has as its system Aβ42 production. Kind of data set: Suppressive activity of Aβ42 production in neuroblast expressing human APP695 (ELISA of secreted Aβ42). It is filed as cell-based. As to conditions: secreted Aβ42, SH-SY5Y-APPwt cells, 24 hours. The protocol:
Dose dependent effect of each test compound was evaluated by measurement of secreted Aβ42 and cell viability in SH-SY5Y-APPwt cells. Secreted Aβ42 was quantified by an ELISA assay and cell viability was measured using a cell count reagent.
SH-SY5Y-APPwt cells were generated from human SH-SY5Y neuroblast by transfection of human APP695 DNA as a stable cell-line and cultured in DMEM supplemented with 10% FCS.
SH-SY5Y-APPwt cells were plated at 1.2×10^5 cells/well/150 μl in 96-well plates. A solution of the test compound in DMSO was diluted with DMEM to a concentration 4-fold higher than the final concentration. 50 μl of the diluted solution was sufficiently mixed with the cells and the final DMEM solution was 200 μl/well. The final DMSO concentration was 1%. As a control compound, a γ-secretase inhibitor, DAPT (Calbiochem) was used. 24 hours after, the culture supernatant was collected and appropriately diluted for ELISA quantification of Aβ42. Cells were used for cell viability assay.
Human/Rat β Amyloid(42) ELISA Kit WAKO (WAKO Pure Chemical Industries) was used for ELISA. ELISA was carried out according to the protocols recommended by the manufacturer's instructions. The results were shown as percentage to the Aβ concentration in the medium of control group (% of Control) and then IC50 values of each test compounds were calculated. Cell viability was measured using Cell Count Reagent SF (NACALAI TESQUE) according to the protocols recommended by the manufacturer's instructions. The results were shown as percentage to cell viability of control group (% of Control) and reduction of cell viability was not seen.

Data set [3] has as its target T1, hERG channel (IKr) (Homo sapiens, UniProt Q12809).
T1 construct: expressed in transfected cells; host or cells: HEK293
Kind of data set: hERG test (whole-cell patch clamp, IKr). It is filed as cell-based. As to conditions: HEK293 cells that express hERG, pH 7.4, HEK293 cell expressing hERG, room temperature, concentration not given, read-out: inhibitory percentage relative to the maximum tail current (IKr). The source says: For the purpose of risk assessment for QT prolongation on an electrocardiogram, the action on delayed rectifier K+ current (IKr) which plays an important role on a process of ventricular repolarization is studied using a HEK293 cell with a human ether-a-go-go related gene (hERG) channel expressed therein.
A cell is maintained at a membrane potential of −80 mV, and then +50 mV of a depolarizing stimulus is applied to the cell for 2 seconds and further −50 mV of a repolarizing stimulus is applied thereto for 2 seconds by a whole-cell patch clamp technique with a fully-automatic patch clamp system (PatchXpress 7000A, Axon Instruments Inc.), and the induced IKr is recorded. As the current generated is stabilized, an extracellular fluid with the test compound dissolved therein at a target concentration (NaCl: 137 mmol/L, KCl: 4 mmol/L, CaCl2.2H2O: 1.8 mmol/L, MgCl2.6H2O: 1 mmol/L, glucose: 10 mmol/L, HEPES (4-(2-hydroxyethyl)-1-piperazineethanesulfonic acid): 10 mmol/L, pH=7.4) is applied to the cell for 10 minutes under room temperature conditions. The absolute value of the maximum tail current is determined from the obtained IKr with an analysis software (DataXpress ver. 1, Molecular Devices Corporation) based on a current value at a maintained membrane potential. Further, an inhibitory percentage relative to the maximum tail current before application of the test compound is calculated, and influence of the test compound on IKr is evaluated in comparison with the medium application group (0.1% dimethyl sulfoxide solution).

Data set [4] can be described thus: Solubility test. It is filed as physicochemical. The conditions noted are these: kinetic from dmso stock; 1% DMSO, artificial intestinal juice pH 6.8, 16 hours at 25° C. The protocol: The solubility of each compound is determined under 1% DMSO addition conditions. A 10 mM solution of the compound is prepared with DMSO, and 6 μL of the compound solution is added to 594 μL of an artificial intestinal juice (water and 118 mL of 0.2 mol/L NaOH reagent are added to 250 mL of 0.2 mol/L potassium dihydrogen phosphate reagent to reach 1000 mL) with a pH of 6.8. The mixture is left standing for 16 hours at 25° C., and the mixture is vacuum-filtered. The filtrate is two-fold diluted with methanol/water=1/1, and the compound concentration in the filtrate is measured with HPLC or LC/MS/MS by the absolute calibration method.

Data set [5] in a line: Metabolic stability test. It is filed as in vitro ADME. The conditions noted are these: human liver microsomes 0.5 mg protein/mL, 1 mmol/L NADPH, 30 minutes at 37° C. The procedure:
The test compound is reacted with commercially available pooled human liver microsomes for a predetermined time period. The residual rate is calculated by comparing the reacted sample and unreacted sample, and thus the degree of metabolism in liver is evaluated. In 0.2 mL of a buffer (50 mmol/L tris-HCl pH 7.4, 150 mmol/L potassium chloride, 10 mmol/L magnesium chloride) containing human liver microsomes 0.5 mg protein/mL, reaction is carried out in the presence of 1 mmol/L NADPH for 0 minute or 30 minutes at 37° C. (oxidative reaction). After the reaction, 50 μL of the reaction solution is added to and mixed with 100 μl of a solution of methanol/acetonitrile=1/1 (v/v), and the mixture is centrifuged for 15 minutes at 3000 rpm. The test compound in the centrifuged supernatant is quantified by LC/MS/MS, and the residual amount of the test compound after the reaction is calculated based on the compound amount at O-minute reaction set as 100%.

Data set [6] deals with γ-secretase. The data set can be described thus: Inhibition of γ-secretase activity: CTFβ ELISA in SH-SY5Y-APPwt cells. As to conditions: concentration 1-fold and 10-fold higher than IC50 for Aβ42 inhibition, 24 hours. Type of data set: cell-based, human. The protocol:
Inhibition of γ-secretase activity of the test compounds were evaluated by assessment of APP processing by γ-secretase, i.e., by measurement of a γ-secretase substrate C-terminal fragment β (CTFβ) in SH-SY5Y-APPwt cells. Cells were treated in test compound concentration 1-fold and 10-fold higher than its IC50 value for Aβ42 inhibition. CTFβ accumulated by inhibition of γ-secretase activity was quantified by an ELISA assay. SH-SY5Y-APPwt cells were generated from human SH-SY5Y neuroblast by transfection of human APP695 DNA as a stable cell-line and cultured in DMEM supplemented with 10% FCS. SHSY5Y-APPwt cells were plated at 1.0×10^6 cells/well/1 ml DMEM in 6-well plates. A solution of the test compound in DMSO was diluted with DMEM to a concentration 2-fold higher than the final concentration. 1 ml of the diluted solution was sufficiently mixed with the cell and the final DMEM solution was 2 mL/well. The final DMSO concentration was 1%. As a control compound, a γ-secretase inhibitor, DAPT (Calbiochem) was used. […] Protein concentrations in the supernatants were measured by Protein assay Kit (Pierce). The supernatants were diluted and used for CTFβ quantification by βCTF ELISA Kit (IBL) The results were shown as percentage to the CTFβ concentration of control group (added only DMSO) (% of Control), and increasing and decreasing CTFβ of the test compound was calculated. […]

Consider 14 molecules from patent US20120135997A1, “PHARMACEUTICAL COMPOSITION COMPRISING A LACTAM OR BENZENESULFONAMIDE COMPOUND” (Shionogi & Co., Ltd., priority 2009, published 2012).

T1 sequence (Q12809 whole entry): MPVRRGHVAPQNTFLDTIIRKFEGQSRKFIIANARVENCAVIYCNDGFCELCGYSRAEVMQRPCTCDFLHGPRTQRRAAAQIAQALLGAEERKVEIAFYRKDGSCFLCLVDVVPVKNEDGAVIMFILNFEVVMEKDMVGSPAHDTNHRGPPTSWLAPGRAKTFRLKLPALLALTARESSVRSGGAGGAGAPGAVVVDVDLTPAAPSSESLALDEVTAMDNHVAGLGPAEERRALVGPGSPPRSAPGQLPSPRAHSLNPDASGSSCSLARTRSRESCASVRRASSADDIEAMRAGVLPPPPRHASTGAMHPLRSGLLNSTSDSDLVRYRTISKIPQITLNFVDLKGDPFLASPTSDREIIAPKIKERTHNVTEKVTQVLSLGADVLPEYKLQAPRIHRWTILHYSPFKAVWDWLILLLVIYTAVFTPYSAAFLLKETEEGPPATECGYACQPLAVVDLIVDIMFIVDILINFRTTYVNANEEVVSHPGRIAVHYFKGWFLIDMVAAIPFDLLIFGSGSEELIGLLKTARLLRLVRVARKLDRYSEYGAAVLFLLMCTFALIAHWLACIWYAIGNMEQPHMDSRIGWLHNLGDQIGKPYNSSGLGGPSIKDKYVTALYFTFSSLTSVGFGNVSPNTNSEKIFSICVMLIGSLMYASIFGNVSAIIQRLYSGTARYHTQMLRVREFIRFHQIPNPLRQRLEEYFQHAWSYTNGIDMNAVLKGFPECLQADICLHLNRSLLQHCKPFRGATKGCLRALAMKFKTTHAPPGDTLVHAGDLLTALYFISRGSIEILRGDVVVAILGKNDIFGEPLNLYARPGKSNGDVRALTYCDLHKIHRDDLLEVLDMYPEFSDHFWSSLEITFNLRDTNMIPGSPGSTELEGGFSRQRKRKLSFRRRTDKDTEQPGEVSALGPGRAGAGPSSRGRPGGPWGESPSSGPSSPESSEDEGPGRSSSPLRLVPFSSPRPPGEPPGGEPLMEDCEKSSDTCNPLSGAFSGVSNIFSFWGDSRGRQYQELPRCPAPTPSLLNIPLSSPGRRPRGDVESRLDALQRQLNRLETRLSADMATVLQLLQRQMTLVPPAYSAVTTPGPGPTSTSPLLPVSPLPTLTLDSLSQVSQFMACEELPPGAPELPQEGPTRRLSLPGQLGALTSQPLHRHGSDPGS
Sequence of CYP3A4 (P08684 whole entry): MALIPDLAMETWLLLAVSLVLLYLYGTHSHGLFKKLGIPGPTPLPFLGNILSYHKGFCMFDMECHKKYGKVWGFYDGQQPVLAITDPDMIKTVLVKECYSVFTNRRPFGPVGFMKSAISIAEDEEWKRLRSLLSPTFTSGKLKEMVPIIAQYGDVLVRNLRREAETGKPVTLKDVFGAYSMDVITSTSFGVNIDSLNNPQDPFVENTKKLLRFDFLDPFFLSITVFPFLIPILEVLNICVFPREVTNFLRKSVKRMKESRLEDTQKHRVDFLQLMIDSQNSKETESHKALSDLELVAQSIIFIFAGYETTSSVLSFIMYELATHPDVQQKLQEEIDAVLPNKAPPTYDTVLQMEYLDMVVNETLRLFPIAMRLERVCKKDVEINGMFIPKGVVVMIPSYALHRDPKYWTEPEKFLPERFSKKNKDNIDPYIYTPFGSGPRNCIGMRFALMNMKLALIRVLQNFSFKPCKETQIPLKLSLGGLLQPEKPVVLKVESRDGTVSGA

For the molecule `COc1cc(NS(=O)(=O)c2ccc(Cl)c(Cl)c2)ccc1-n1cnc(C)c1` [Compound 1], the “CYP3A4 MBI: difference of the IC50 values” in data set [1] is reported as “(−) (when the difference is 3 μM or lower, it is regarded as (−))”. For the same molecule, the IC50 in data set [2] is 0.9 µM.
As for `COc1cc(NS(=O)(=O)Cc2cccc(Cl)c2)ccc1-n1cnc(C)c1` [Compound 38], half-maximal inhibition in data set [2] (IC50) was put at 6.6 µM. This counts as single-digit micromolar.
Regarding `COc1cc(NS(=O)(=O)c2ccccc2F)ccc1-n1cnc(C)c1` [Compound 69], the inhibition at 10 min in data set [3] came to 6.4%.
On to `COc1cc(NS(=O)(=O)c2ccccc2[N+](=O)[O-])ccc1-n1cnc(C)c1` [Compound 74], for which the solubility at 16 h in data set [4] was > 50 µM. In addition, the inhibition at 10 min in data set [3] is 1.1%.
For `COc1cc(NS(=O)(=O)c2ccccc2-c2csc3ccccc23)ccc1-n1cnc(C)c1` [Compound 111], the “CYP3A4 MBI: difference of the IC50 values” in data set [1] was “(−) (when the difference is 3 μM or lower, it is regarded as (−))”.
As for `COc1cc(NS(=O)(=O)c2ccc(Cl)nc2)ccc1-n1cnc(C)c1` [Compound 113], the “residual amount of the test compound after the reaction” value in data set [5] is reported as 97.0%. Further, the inhibition at 10 min in data set [3] was determined as 8.5%.
As to `COc1cc(NS(=O)(=O)c2cccnc2Cl)ccc1-n1cnc(C)c1` [Compound 115], the “residual amount of the test compound after the reaction” value in data set [5] came out at 97.8%.
As to `COc1cc(NS(=O)(=O)c2ccccc2-c2ccncc2)ccc1-n1cnc(C)c1` [Compound 178], in data set [4], the solubility at 16 h is > 50 µM.
For the molecule `COc1cc(N2Cc3ccc(-c4ccccc4Cl)cc3C2=O)ccc1-n1cnc(C)c1` [Compound 189], in data set [2], inhibition was half-maximal at 1.6 µM (IC50). That is a single-digit micromolar value.
For `COc1cc(N2CCC(NC(=O)c3cccc(Cl)c3)C2=O)ccc1-n1cnc(C)c1` (centres unmarked) [Compound 201], half-maximal inhibition in data set [2] (IC50) required 0.8 µM.
In turn, `COc1cc(N2CCC(NCc3ccc(Cl)cc3)C2=O)ccc1-n1cnc(C)c1` (centres unmarked) [Compound 231] yielded a half-inhibitory concentration (IC50) in data set [2] of 1.8 µM. Against the preceding molecule, the IC50 is about 2.2-fold higher.
`COc1cc(N2CCC(C(c3ccccc3)c3ccccc3)C2=O)ccc1-n1cnc(C)c1` (centres unmarked) [Compound 259] displayed an IC50 in data set [2] of 0.7 µM.
Same read-out and setting: for `COc1cc(NC(=O)Cc2ccc(Cl)c(Cl)c2)ccc1-n1cnc(C)c1` [Compound E8] the value was 1.1 µM.
`C[C@H](NC(=O)Cc1cc(F)cc(F)c1)C(=O)N[C@H](C(=O)OC(C)(C)C)c1ccccc1` [DAPT]: the “change of CTFβ” value in data set [6] is “dose-dependently increased CTFβ”.
